{"source": "PubChem BioAssay (NCI)", "assay_in_all_cases": "inhibition of tumour cell growth, NCI panel, 48 h", "key": {"[1]": {"tested_on": "EKVX NSCLC"}, "[2]": {"tested_on": "NCI-H23 lung"}, "[3]": {"tested_on": "SF-295 CNS"}, "[4]": {"tested_on": "IGROV1 ovarian"}, "[5]": {"tested_on": "786-0 renal"}, "[6]": {"tested_on": "HT29 colon"}, "[7]": {"tested_on": "NCI-H460 lung"}, "[8]": {"tested_on": "SK-MEL-2 melanoma"}, "[9]": {"tested_on": "M14 melanoma"}, "[10]": {"tested_on": "A498 renal"}}, "note": "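Step 1: Grow cells in 96-well plates. Step 2: Expose to compound for 48 hours at 5 concentrations. Step 3: Interpolate endpoints linearly; if unreached, use highest concentration. GI50: concentration for 50% inhibition of growth. At the TGI there is no net growth.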", "data": [{"molecule": "COc1cc(N2C(=O)[C@H](O)C2c2ccc(SC)cc2)cc(OC)c1OC", "note": "(stereo not given in full)", "values": [{"measurement": "GI50", "setting": "[1]", "value": "< 0.01", "unit": "µM"}, {"measurement": "TGI", "setting": "[1]", "value": "> 100", "unit": "µM"}, {"measurement": "GI50", "setting": "[2]", "value": 0.0191, "unit": "µM"}, {"measurement": "TGI", "setting": "[2]", "value": "> 100", "unit": "µM"}, {"measurement": "GI50", "setting": "[3]", "value": "< 0.01", "unit": "µM"}, {"measurement": "TGI", "setting": "[3]", "value": 26.1, "unit": "µM"}, {"measurement": "GI50", "setting": "[4]", "value": "< 0.01", "unit": "µM"}, {"measurement": "TGI", "setting": "[4]", "value": "> 100", "unit": "µM"}, {"measurement": "GI50", "setting": "[5]", "value": "< 0.01", "unit": "µM"}, {"measurement": "TGI", "setting": "[5]", "value": 55.8, "unit": "µM"}, {"measurement": "GI50", "setting": "[6]", "value": "< 0.01", "unit": "µM"}, {"measurement": "TGI", "setting": "[6]", "value": 0.0887, "unit": "µM"}, {"measurement": "GI50", "setting": "[7]", "value": "< 0.01", "unit": "µM"}, {"measurement": "TGI", "setting": "[7]", "value": 13.1, "unit": "µM"}, {"measurement": "GI50", "setting": "[8]", "value": "< 0.01", "unit": "µM"}, {"measurement": "TGI", "setting": "[8]", "value": "> 100", "unit": "µM"}, {"measurement": "GI50", "setting": "[9]", "value": "< 0.01", "unit": "µM"}, {"measurement": "TGI", "setting": "[9]", "value": 0.0198, "unit": "µM"}, {"measurement": "GI50", "setting": "[10]", "value": "< 0.01", "unit": "µM"}, {"measurement": "TGI", "setting": "[10]", "value": 0.0882, "unit": "µM"}]}, {"molecule": "CC(=O)Nc1ccc(SC#N)c2c(NC(C)=O)cccc12", "values": [{"measurement": "TGI", "setting": "[1]", "value": "> 100", "unit": "µM"}, {"measurement": "TGI", "setting": "[2]", "value": "> 100", "unit": "µM"}, {"measurement": "TGI", "setting": "[3]", "value": "> 100", "unit": "µM"}, {"measurement": "TGI", "setting": "[4]", "value": "> 100", "unit": "µM"}, {"measurement": "TGI", "setting": "[5]", "value": "> 100", "unit": "µM"}, {"measurement": "TGI", "setting": "[6]", "value": "> 100", "unit": "µM"}, {"measurement": "TGI", "setting": "[7]", "value": "> 100", "unit": "µM"}, {"measurement": "TGI", "setting": "[8]", "value": "> 100", "unit": "µM"}, {"measurement": "TGI", "setting": "[9]", "value": "> 100", "unit": "µM"}, {"measurement": "TGI", "setting": "[10]", "value": "> 100", "unit": "µM"}]}, {"molecule": "O=C(O)c1ccc(C(=O)c2ccccc2)c(C(=O)O)c1", "values": [{"measurement": "TGI", "setting": "[1]", "value": "> 100", "unit": "µM"}, {"measurement": "TGI", "setting": "[2]", "value": "> 100", "unit": "µM"}, {"measurement": "TGI", "setting": "[3]", "value": "> 100", "unit": "µM"}, {"measurement": "TGI", "setting": "[4]", "value": "> 100", "unit": "µM"}, {"measurement": "TGI", "setting": "[5]", "value": "> 100", "unit": "µM"}, {"measurement": "TGI", "setting": "[6]", "value": "> 100", "unit": "µM"}, {"measurement": "TGI", "setting": "[7]", "value": "> 100", "unit": "µM"}, {"measurement": "TGI", "setting": "[8]", "value": "> 100", "unit": "µM"}, {"measurement": "TGI", "setting": "[9]", "value": "> 100", "unit": "µM"}, {"measurement": "TGI", "setting": "[10]", "value": "> 100", "unit": "µM"}]}]}
